Experimental data reported in the supplement of paper PMC10307832.

Tests used:
Assay in all cases: relative viability (nuclei count vs DMSO), 5 days (fraction); higher = more cells survive
QS11 + Foretinib = compound: C1CC2=C(C1)C=C(C=C2)OC3=NC(=C4C(=N3)N(C=N4)CC5=CC=C(C=C5)C6=CC=CC=C6)N[C@@H](CC7=CC=CC=C7)CO [QS11] + COc1cc2c(Oc3ccc(NC(=O)C4(C(=O)Nc5ccc(F)cc5)CC4)cc3F)ccnc2cc1OCCCN1CCOCC1 [Foretinib] (partner 0.25 µM)
Outline: (§1)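 Nuclei were stained with Hoechst during a one-step fixation (final 0.05% Triton X-100, 1% formaldehyde, 1 ug/ml Hoechst) carried out 5 days after dosing, then counted on 4× images. The cells, lung cancer lines in 1536-well plates, had been dosed by pin tool the day after seeding with one drug alone or a fixed anchor-drug dose plus five library-drug doses (not always all listed) in √10 steps. Relative viability is the nuclei count in treated wells divided by that in vehicle wells, and each value is the median of duplicate plates.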

AZ628 + Pemetrexed = compound: CC1=C(C=C(C=C1)NC(=O)C2=CC(=CC=C2)C(C)(C)C#N)NC3=CC4=C(C=C3)N=CN(C4=O)C [AZ628] + Nc1nc2[nH]cc(CCc3ccc(C(=O)N[C@@H](CCC(=O)O)C(=O)O)cc3)c2c(=O)[nH]1 [Pemetrexed] (partner 0.2 µM)
Outline: as §1

[1] = compound: C[As](C)SC[C@H](NC(=O)CC[C@H](N)C(=O)O)C(=O)NCC(=O)O [Darinaparsin] + Cc1cc(Nc2cc(N3CCN(C)CC3)nc(Sc3ccc(NC(=O)C4CC4)cc3)n2)n[nH]1 [Tozasertib] (partner 0.1 µM)
Outline: as §1

[2] = compound: C[As](C)SC[C@H](NC(=O)CC[C@H](N)C(=O)O)C(=O)NCC(=O)O [Darinaparsin] + Nc1ncn([C@H]2C[C@H](O)[C@@H](CO)O2)c(=O)n1 [Decitabine] (partner 2 µM)
Outline: as §1

Row | Cell Line | relative viability (QS11 + Foretinib; first compound 0.08 µM) | relative viability (QS11 + Foretinib; first compound 0.253 µM) | relative viability (QS11 + Foretinib; first compound 0.8 µM) | relative viability (QS11 + Foretinib; first compound 2.53 µM) | relative viability (QS11 + Foretinib; first compound 8 µM) | relative viability (AZ628 + Pemetrexed; first compound 0.08 µM) | relative viability (AZ628 + Pemetrexed; first compound 0.253 µM) | relative viability (AZ628 + Pemetrexed; first compound 0.8 µM) | relative viability (AZ628 + Pemetrexed; first compound 2.53 µM) | relative viability (AZ628 + Pemetrexed; first compound 8 µM) | relative viability ([1]; first compound 0.08 µM) | relative viability ([1]; first compound 0.8 µM) | relative viability ([1]; first compound 2.53 µM) | relative viability ([1]; first compound 8 µM) | relative viability ([2]; first compound 0.08 µM) | relative viability ([2]; first compound 0.8 µM) | relative viability ([2]; first compound 2.53 µM) | relative viability ([2]; first compound 8 µM)
1 | NCI-H1563 | 0.971 | 0.876 | 1.06 | 1.07 | 0.916 | 0.773 | 0.827 | 0.86 | 0.756 | 0.764 |  |  |  |  |  |  |  | 
2 | NCI-H1299 | 1.14 | 1.11 | 0.956 | 1.04 | 0.948 |  |  |  |  |  |  |  |  |  |  |  |  | 
3 | NCI-H522 |  |  |  |  |  | 0.903 | 1.02 | 0.874 | 0.93 | 0.645 | 0.508 | 0.602 | 0.534 | 0.599 | 0.626 | 0.627 | 0.711 | 0.705
4 | NCI-H1648 |  |  |  |  |  | 1.06 | 0.702 | 0.614 | 0.549 | 0.642 | 0.346 | 0.53 |  | 0.474 |  | 0.474 |  | 0.494
5 | NCI-H1792 |  |  |  |  |  | 1 | 0.677 | 0.457 | 0.583 | 0.368 |  |  |  |  | 0.694 | 0.512 |  | 0.588
6 | A549 | 0.911 | 0.883 | 0.697 | 0.918 | 0.917 |  |  |  |  |  |  |  |  |  |  | 0.209 | 0.229 | 0.291
7 | CAL-12T | 1.04 | 1.1 | 0.98 | 1.06 | 0.939 | 1.37 | 1.18 | 1.15 | 1.33 | 0.716 | 0.343 | 0.3 | 0.326 | 0.341 |  |  |  | 
8 | EBC-1 | 0.0939 | 0.0918 | 0.115 | 0.11 | 0.144 |  |  |  |  |  |  |  |  |  |  |  |  | 
9 | IA-LM | 1.22 | 1.15 |  | 1.12 | 0.969 |  |  |  |  |  |  |  |  |  |  |  |  | 
